Literature values in patent US6476012B2, “Estradiol-16α-carboxylic acid esters as locally active estrogens” (Yale University, priority 2001, dated 2002).

Key:
classical ER, ERα = target: T1, classical ER, ERα (Homo sapiens, UniProt P03372); conditions: previously reported; cited from earlier work
T1 sequence (P03372 1-595): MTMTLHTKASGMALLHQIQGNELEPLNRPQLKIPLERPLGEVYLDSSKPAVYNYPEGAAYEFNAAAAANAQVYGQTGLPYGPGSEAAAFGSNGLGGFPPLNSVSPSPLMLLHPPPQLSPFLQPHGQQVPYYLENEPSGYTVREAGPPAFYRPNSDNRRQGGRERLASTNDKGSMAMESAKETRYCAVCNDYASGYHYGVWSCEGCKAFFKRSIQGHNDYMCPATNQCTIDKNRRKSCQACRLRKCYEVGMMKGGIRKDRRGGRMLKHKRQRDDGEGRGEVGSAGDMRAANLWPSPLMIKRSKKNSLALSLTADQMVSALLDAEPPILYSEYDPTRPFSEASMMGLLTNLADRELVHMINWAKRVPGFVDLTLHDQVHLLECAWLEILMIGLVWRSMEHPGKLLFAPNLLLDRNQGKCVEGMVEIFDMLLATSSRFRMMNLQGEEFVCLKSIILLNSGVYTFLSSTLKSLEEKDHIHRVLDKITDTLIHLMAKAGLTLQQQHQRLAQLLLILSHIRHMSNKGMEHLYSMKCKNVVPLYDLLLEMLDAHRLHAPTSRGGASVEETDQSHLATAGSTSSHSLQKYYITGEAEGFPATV

ERβ = ERβ (Homo sapiens, UniProt Q92731); conditions: previously reported; cited from earlier work
ERβ, sequence (Q92731 whole entry, species assumed): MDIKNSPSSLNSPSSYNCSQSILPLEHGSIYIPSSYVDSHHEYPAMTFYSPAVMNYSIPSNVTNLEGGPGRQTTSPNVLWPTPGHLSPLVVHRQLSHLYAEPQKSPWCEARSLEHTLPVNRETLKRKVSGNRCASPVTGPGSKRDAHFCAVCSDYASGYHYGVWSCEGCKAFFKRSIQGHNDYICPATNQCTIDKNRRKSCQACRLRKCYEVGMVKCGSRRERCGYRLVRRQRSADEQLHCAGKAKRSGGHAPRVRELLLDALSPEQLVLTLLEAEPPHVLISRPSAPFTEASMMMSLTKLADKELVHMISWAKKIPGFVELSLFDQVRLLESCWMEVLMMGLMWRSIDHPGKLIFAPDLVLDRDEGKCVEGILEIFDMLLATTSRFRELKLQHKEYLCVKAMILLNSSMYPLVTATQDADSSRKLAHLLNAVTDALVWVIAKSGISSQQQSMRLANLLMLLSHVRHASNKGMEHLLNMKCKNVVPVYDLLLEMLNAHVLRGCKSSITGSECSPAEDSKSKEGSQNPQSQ

C[C@]12CC[C@@H]3c4ccc(O)cc4CC[C@H]3[C@@H]1C[C@@H](I)[C@@H]2O [16α-iodoestradiol]
binding to ERα (classical ER, ERα): binds with high affinity | binding to ERβ (ERβ): binds only poorly
